Type in all cases: cell-based, human
The subject of series [1] is pAEC from asthmatic children. Kind of series: Scratch wound repair assay (wound closure), pAEC from asthmatic children. To be noted: for accelerated repair compared to DMSO vehicle: 10 μM, 48 hours treatment post wounding; for promotion of pAEC repair relative to celecoxib: screen at 10 μM, cohort not given. On the procedure:
(§1) Two in vitro scratch wound models were used. […] Wound closure was calculated through image analysis by the accompanying live-cell imaging system (Essen Bioscience, Ann Arbor, Mich., USA).
(§2) To assess in vitro wound repair kinetics, linear scratch wounds were created using a commercial monolayer wounding kit. Once confluent, cell cultures were placed in starvation media (BEGM™ without epidermal growth factor) for about 24 hours prior to wounding. At the time of wounding, cell cultures were treated with compound dilution (10 μM), DMSO vehicle (0.05% v/v) or untreated. Wound closure rates were calculated through image analysis by the accompanying live-cell imaging system (Essen Bioscience, Ann Arbor, Mich., USA).

Series [2] relates to pAEC from non-asthmatic children. The series can be described thus: MTS cell viability assay, pAEC from non-asthmatic children. The procedure:
(§3) Cell viability was assessed using a 3-[4,5-dimethylthiazol-2yl]-5-[3-carboxymethoxyphenyl]-2-[4-sulfophenyl]-2H-tetrazolium inner salt (MTS) assay (Promega).
Cell viability was assessed using a 3-[4,5-dimethylthiazol-2yl]-5-[3-carboxymethoxyphenyl]-2-[4-sulfophenyl]-2H-tetrazolium inner salt (MTS) assay (Promega, Madison, Wis., USA). […]

The subject of series [3] is pAEC from asthmatic children. Kind of series: MTS cell viability assay, pAEC from asthmatic children. On the procedure: as §3
Cell viability was assessed using a 3-[4,5-dimethylthiazol-2yl]-5-[3-carboxymethoxyphenyl]-2-[4-sulfophenyl]-2H-tetrazolium inner salt (MTS) assay (Promega, Madison, Wis., USA). Once confluent, cell cultures were treated with 10 μM compound, DMSO vehicle (0.05% v/v) or untreated for 48 hours.
Background: Tetrazolium dyes change colour on reduction, which living cells bring about.

In series [4] the test system is pAEC from non-asthmatic children. The series can be described thus: Scratch wound repair assay (wound closure), pAEC from non-asthmatic children. To be noted: treated at time of scratch wounding; Wortmannin 0.01-10 μM, MK2206 0.01-5 μM. On the procedure: as §1, §2
Series [5] relates to Akt (serine residue 473). Kind of series: In-Cell Western assay of Akt phosphorylation, pAEC from non-asthmatic children. To be noted: concentration series (Wortmannin 0.01-10 μM, MK2206 0.01-5 μM); 12 h and 48 h post treatment. On the procedure:
(§4) Cells were plated at 1.2×10^5 cells/cm^2 onto 96-well plates precoated with fibronectin ([…]) and maintained as described earlier. Briefly, following relevant treatments and controls, confluent cell monolayers were fixed with 10% (v/v) NBF for 20 minutes at room temperature and then either permeabilized with 0.1% (v/v) Triton X-100 or incubated with PBS for 25 minutes. Cells were blocked for 90 min at room temperature with the Odyssey® blocking buffer (PBS) (LI-COR Biosciences). Cells were then stained with rabbit anti-human integrin α5 (1:100; clone EPR7854, Abcam), mouse anti-human integrin β1 (1:1000; clone P5D2, Abcam), rabbit anti-human phospho-Akt (Ser473) (1:100; clone D9E, Abcam) or mouse anti-human total Akt (pan) (1:100; clone 40D4, Abcam) for 24 hours at 4° C. Antibody binding was determined using IRDye 800 CW-conjugated goat anti-rabbit IgG (1:800; 925-32211, LI-COR Biosciences) and goat anti-mouse IgG (1:800; 925-32210, LI-COR Biosciences), as well as DRAQ5 (1:10000; DR50200, BioStatus Limited) and Sapphire700 (1:1000; 928-40022, LI-COR Biosciences) for cell number normalization, for 1 hour at RT with gentle shaking in the dark. Specific antibody staining for protein expression was then immediately visualized and quantified using an infrared imaging system (LI-COR Biosciences).

Series [6] deals with integrin β1. The series can be described thus: On-Cell Western assay of integrin β1 cell membrane expression, pAEC from non-asthmatic children. Conditions: MK2206; 12 h treatment. On the procedure:
(§5) Cells were plated at 1.2×10^5 cells/cm^2 onto 96-well plates precoated with fibronectin ([…]) and maintained as described earlier. Briefly, following relevant treatments and controls, confluent cell monolayers were fixed with 10% (v/v) NBF for 20 minutes at room temperature and then either permeabilized with 0.1% (v/v) Triton X-100 or incubated with PBS for 25 minutes. Cells were blocked for 90 min at room temperature with the Odyssey® blocking buffer (PBS) (LI-COR Biosciences). Cells were then stained with rabbit anti-human integrin α5 (1:100; clone EPR7854, Abcam), mouse anti-human integrin β1 (1:1000; clone P5D2, Abcam), rabbit anti-human phospho-Akt (Ser473) (1:100; clone D9E, Abcam) or mouse anti-human total Akt (pan) (1:100; clone 40D4, Abcam) for 24 hours at 4° C. Antibody binding was determined using IRDye 800 CW-conjugated goat anti-rabbit IgG (1:800; 925-32211, LI-COR Biosciences) and goat anti-mouse IgG (1:800; 925-32210, LI-COR Biosciences), as well as DRAQ5 (1:10000; DR50200, BioStatus Limited) and Sapphire700 (1:1000; 928-40022, LI-COR Biosciences) for cell number normalization, for 1 hour at RT with gentle shaking in the dark. Specific antibody staining for protein expression was then immediately visualized and quantified using an infrared imaging system (LI-COR Biosciences). […]

Series [7] relates to leading edge pAEC from non-asthmatic children. The series can be described thus: Leading edge cell tracking after scratch wounding, pAEC from non-asthmatic children. To be noted: Wortmannin 0.01-10 μM, MK2206 0.01-5 μM. The procedure: (§6) Manual Tracking, an ImageJ2 plugin publicly available was utilized for its capacity to manually track cells in two dimensions, the x and y planes. […] The selected cells were tracked over the first 12 h post wounding, where this procedure generated x and y coordinates for the position of the nucleus of each tracked cell at each time point. The x,y coordinates of the tracked cells were exported in a tab delimited format and all tracks were transformed to migrate up towards the y-axis. Graphical representation and analysis of the cell migration parameters was performed using the Chemotaxis and Migration Tool 2.0 (Ibidi®, Martinsried, Bayern, Germany). […] Migration parameters of cell tracks were then quantified including; (1) distance migrated (μm) which represented the displacement of a cell from the start to its endpoint, (2) velocity (μm/min), which is a function of displacement overtime, and (3) directionality (AU), which represents a measurement of the directness or straightness of a cell trajectory and was calculated as a ratio of the cell displacement over the accumulated distance migrated. […] Since directionality is not a direct measure of chemotaxis, the determined forward migration index (FMI) (AU) was then utilized to represent the efficiency of the leading edge cells to migrate towards the center of the wounded area. […]

For series [8], the system named is integrin α5. The series can be described thus: On-Cell Western assay of integrin α5 cell membrane expression, pAEC from non-asthmatic children. The procedure: as §4
After this, cells were washed in 1× phosphate-buffered saline (PBS) and incubated with IRDye-conjugated secondary antibody (1:800 goat anti-rabbit and goat anti-mouse IgG, LI-COR Biosciences, Lincoln, Nebr., USA) containing DRAQ5 (1:10000, BioStatus Limited, Shepshed, United Kingdom) and Sapphire700 (1:1000, LI-COR Biosciences, Lincoln, Nebr., USA) for 1 hour at RT with gentle shaking in a dark room. Cells were then washed for an additional five times in PBS. Specific antibody staining for protein expression was then immediately visualized using an infrared imaging system (LI-COR Biosciences, Lincoln, Nebr., USA

Series [9] concerns integrin β1. The series can be described thus: On-Cell Western assay of integrin β1 cell membrane expression, pAEC from asthmatic children. Conditions: 0.5, 2 and 5 μM SC79; 12 h and 48 h. On the procedure: as §5
Series [10] has as its system Akt (serine residue 473). Kind of series: In-Cell Western assay of Akt phosphorylation, pAEC from asthmatic children. To be noted: SC79 0.5-20 μM; 12 h and 48 h post treatment. On the procedure:
as §4

Series [11] deals with integrin α5. Kind of series: On-Cell Western assay of integrin α5 cell membrane expression, pAEC from asthmatic children. To be noted: 0.5, 2 and 5 μM SC79; 12 h and 48 h. The procedure: as §5
The subject of series [12] is pAEC from asthmatic children. The series can be described thus: Scratch wound repair assay (wound closure), pAEC from asthmatic children. Conditions: SC79 0.5-20 μM at time of scratch wounding.
Series [13] has as its system leading edge pAEC from asthmatic children. Kind of series: Leading edge cell tracking after scratch wounding, pAEC from asthmatic children. To be noted: SC79 0.5-20 μM. On the procedure: as §6
Where [14] appears, read: 0.01, 0.1, 1 μM (all concentrations bar the highest).
Where [15] appears, read: 10 μM, 48 hours, change of less than or equal to 20% relative to DMSO vehicle considered non-cytotoxic.

“Also recorded” adds a separate entry of the source.

Take `NS(=O)(=O)c1ccccc1` [Compound C2, Benzenesulfonamide]: the “accelerated repair compared to DMSO vehicle” value in [1] is recorded as “no improvement”.
For `COC[C@H]1OC(=O)c2coc3c2[C@@]1(C)C1=C(C3=O)[C@@H]2CCC(=O)[C@@]2(C)C[C@H]1OC(C)=O` [Wortmannin], the figures for the “cell viability (MTS)” value in [2] (10 μM Wortmannin) and in [2] (setting [14]) were “significant loss of viability” and “did not have a significant cytotoxic effect; also recorded: did not cause significant cytotoxicity”, respectively.
Take `CC(=NNc1ccc(S(N)(=O)=O)cc1)c1ccc(C)cc1` [Compound C11]: the “accelerated repair compared to DMSO vehicle” value in [1] is on record as “no improvement”.
Regarding `Cc1ccc(C)c(-c2cc(C(F)(F)F)nn2-c2ccc(S(N)(=O)=O)cc2)c1` [Compound C6, 2,5-Dimethyl-Celecoxib], the “promotion of pAEC repair relative to celecoxib” value in series [1] was “comparable efficacy”.
For the compound `CS(=O)(=O)c1ccc(-n2nc(C(F)(F)F)cc2-c2ccc(F)cc2)cc1` [Compound C22, 5-(4-fluorophenyl)-1-[4-(methylsulfonyl)phenyl]-3-(trifluoromethyl)-1H-pyrazole], the “promotion of pAEC repair relative to celecoxib” value in series [1] is given as “to a greater degree than celecoxib”.
As for `Nc1ccc(S(N)(=O)=O)cc1` [Compound C17, Sulfanilamide], the “accelerated repair compared to DMSO vehicle” value in [1] is given as “no improvement”.
The same measure, in the same setting: next, `O=C(O)c1cc(/N=N/c2ccc(S(=O)(=O)Nc3ccccn3)cc2)ccc1O` [Compound C15, Sulfasalazine]: “no improvement”.
For the compound `Cc1ccc(-c2cc(C(F)(F)F)nn2-c2ccc(S(N)(=O)=O)cc2)cc1` [Compound C3, Celecoxib], the “cell viability (MTS)” value in series [3] (setting [15]) is reported as “did not display any change in cell viability”; in [3] (0.01, 0.1, 1, 10 μM, listed as Celecoxib) it was “did not cause significant cytotoxicity”; in series [3] (0.01, 0.1, 1, 10 μM, listed as celecoxib), “not cytotoxic”; in series [2] (setting [15]) it was “did not display any change in cell viability”.
Consider `CN1C(C(=O)Nc2ccccn2)=C(O)c2ccccc2S1(=O)=O` [Compound C13, Piroxicam], for which the “accelerated repair compared to DMSO vehicle” value in series [1] is recorded as “no improvement”.
On to `NC1(c2ccc(-c3nc4ccn5c(=O)[nH]nc5c4cc3-c3ccccc3)cc2)CCC1` [MK2206], for which the “wound closure rates (effect in words)” value in series [4] is reported as “significant inhibition; also recorded: concentration-dependent reduction in wound closure rates”. Besides, the “activation/phosphorylation of Akt (Ser473)” value in series [5] is “significant inhibition; also recorded: inhibited activation of Akt”. The “integrin β1 cell membrane expression” value in series [6] was “did not have a significant effect”. Further, the “leading edge cell migration (distance migrated, velocity, directionality, yFMI)” value in [7] is “significant inhibition; also recorded: inhibited distance migrated, velocity, directionality and centrality (yFMI)”. In series [2] (setting [14]), the “cell viability (MTS)” value was “did not cause significant cytotoxicity”. The “integrin α5 cell membrane expression” value in series [8] (1 μM MK2206, 48 h) is recorded as “significant inhibition; also recorded: Significant reduction”; in series [8] (MK2206, concentration-dependent, 12 h treatment), “concentration-dependent inhibition; also recorded: significant reduction of integrin α5”; in [8] (lower concentrations of MK2206 (below 1 μM), 48 h), “not with the lower concentrations”.
With `Cc1ccc(-c2cc(C(F)(F)F)n[nH]2)cc1` [Compound C19, 3-Trifluoromethy1-5-(p-tolyl)-1H-pyrazole], the “accelerated repair compared to DMSO vehicle” value in series [1] is given as “no improvement”.
As to `Cc1ccc(C)c(-c2cc(C(F)(F)F)nn2-c2ccc(S(N)(=O)=O)cc2)c1` [dimethyl-Celecoxib], the “cell viability (MTS)” value is “did not cause significant cytotoxicity” in series [3] (0.01, 0.1, 1, 10 μM) and “not cytotoxic” in series [3] (0.01, 0.1, 1, 10 μM, listed as dimethyl-celecoxib).
Take `CCOC(=O)C1=C(N)Oc2ccc(Cl)cc2C1C(C#N)C(=O)OCC` (stereo not drawn) [SC79, 2-Amino-6-chloro-α-cyano-3-(ethoxycarbonyl)-4H-1-benzopyran-4-acetic acid ethyl ester]: the “integrin β1 cell membrane expression” value in [9] is “restored their integrin α5 and β1 expression to equivalent levels to those of non-asthmatic children; also recorded: Significant activation”. The “cell viability (MTS)” value in series [3] (SC79 0.5, 2, 5, 10, 20 μM) is reported as “did not alter cell viability; also recorded: did not cause significant cytotoxicity”. The “phosphorylation of Akt (Ser473)” value in [10] is given as “augment Akt signaling in a concentration-dependent manner; also recorded: resulted in phosphorylation of Akt”. Also, in series [11], the “integrin α5 cell membrane expression” value is “restored their integrin α5 and β1 expression to equivalent levels to those of non-asthmatic children; also recorded: Significant activation”. For the same compound, the “wound closure rates (effect in words)” value in [12] is given as “significantly enhanced wound closure; also recorded: concentration-dependent increase in wound closure rates”. The “leading edge cell migration (distance migrated, velocity, directionality, yFMI)” value in series [13] is “stimulated leading edge cell migration; also recorded: stimulated distance migrated, velocity, directionality and centrality (yFMI)”.
